Measurements published in publication PMC11490426, “Structure-activity relationship of amino acid analogs to probe the binding pocket of sodium-coupled neutral amino acid transporter SNAT2” (Amino Acids, 2024).
Entries after “also recorded” stand apart in the source; their conditions may differ. Counter-ions that a name gives are not always drawn. Like-named read-outs stand apart in the source and are kept apart here.

Columns and labels:
SNAT2 [1] = biological target: T1, SNAT2 (Homo sapiens, UniProt Q96QD8); assay: Intracellular amino acids and analogs quantified by OPA derivatization and HPLC-Fl after uptake in PC-3 cells; format: cell-based; conditions: 30 min uptake; for fold change of intracellular accumulation in absence vs presence of 10 mM L-glutamine: pH 7.4
T1 construct: hyperosmotically treated PC-3 cells, known to upregulate SNAT2; endogenous in cells; host or cells: PC-3 prostate cells exposed to hyperosmotic medium for 24 h
T1 sequence (Q96QD8 1-506): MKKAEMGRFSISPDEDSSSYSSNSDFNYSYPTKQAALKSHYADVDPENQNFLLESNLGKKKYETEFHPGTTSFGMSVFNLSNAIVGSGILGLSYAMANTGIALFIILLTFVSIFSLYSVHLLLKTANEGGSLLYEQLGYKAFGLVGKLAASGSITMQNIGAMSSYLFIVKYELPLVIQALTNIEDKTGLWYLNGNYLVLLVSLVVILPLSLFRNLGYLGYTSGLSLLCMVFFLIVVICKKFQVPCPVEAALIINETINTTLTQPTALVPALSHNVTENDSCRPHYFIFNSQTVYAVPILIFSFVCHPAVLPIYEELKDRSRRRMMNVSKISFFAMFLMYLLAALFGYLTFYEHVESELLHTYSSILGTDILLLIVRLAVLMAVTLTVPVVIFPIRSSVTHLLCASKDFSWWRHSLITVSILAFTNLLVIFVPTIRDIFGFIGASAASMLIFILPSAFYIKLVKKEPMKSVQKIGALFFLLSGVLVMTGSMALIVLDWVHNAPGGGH
Experimental: Derivatization of AAs and analogs using o-phthalaldehyde (OPA) and 2-mercaptoethanol (2-ME) to make fluorescent derivatives was used to measure the intracellular amounts of AAs and analogs following uptake in hyperosmotically treated PC-3 cells. Before starting the experiment, the medium was aspirated, and the cells were preincubated in HBSS + for 15 min at 37 °C and 220 rpm. The cells were then incubated with 500 µL HBSS+ (background) or HBSS + containing AAs or analogs at given concentrations for 30 min at 37 °C and 220 rpm. After aspirating the donor solutions, the cells were washed thrice with 500 µL of ice-cold PBS while keeping the cells on ice. 200 µL of ice-cold 1x-trypsin was added to each well and allowed to distribute for 20–30 min while keeping the cells on ice. The plate was then transferred to an incubating microplate shaker at 37 °C and 220 rpm for about 8 min or until the cells had detached. 300 µL of ice-cold PBS was added to each well to resuspend the cells and transfer them to centrifuge tubes. The cells were centrifuged at 1000 G for 5 min (4 °C), the supernatant was removed, the cells were resuspended in 300 µL ice-cold PBS, and then centrifuged again at 1000 G for 5 min (4 °C). After removing the supernatant, the cell pellet was lysed by adding 100 µL of 80% methanol (20% ultrapure water) and placing the tubes in an ultrasonic bath for 10 min. The tubes were then centrifuged at 15,000 G for 15 min (4 °C) and the resulting supernatant was used for analysis.
The OPA reagent was prepared by spiking with 2 µL 2-ME per mL of OPA regent and was considered stable for use within one day. 10 µL of the cell samples or standards containing a mixture of the AAs and analogs of interest were placed in HPLC vials with 100 µL inserts. […] The autosampler kept the samples at 10 °C and the pretreatment function was used to automatically mix the samples with 10 µL of the OPA reagent and wait 4 min before loading 2 µL onto a YMC-Triart C18 column (75 × 3.0 mm, 1.9 μm, Mikrolab Aarhus, Viby J, Denmark). […] The fluorescence detector was set to excite at 350 nm and detect at 450 nm.
The resulting chromatograms were integrated and the area under the curve (AUC) of the standard samples was used to generate standard curves to determine the concentration of AAs and analogs in the cell samples. […] Amino acid levels detected in the background cell samples were subtracted from the other cell samples.

SNAT2 [2] = biological target: T1, SNAT2; assay: FLIPR membrane potential (FMP) assay in PC-3 cells; format: cell-based; conditions: for response in the FMP assay (stimulation of SNAT2 activity) / influence on fluorescence intensity in the FMP assay: result in words; for influence on fluorescence intensity in the FMP assay: 20 mM
Experimental: PC-3 cells exposed to hyperosmotic media for 24 h were used to identify SNAT2 substrates in the FMP assay. The media was aspirated, and the cells were preincubated in HBSS + for 10 min at 37 °C and 220 rpm. Then the buffer was aspirated, and cells were then incubated in 50 µL HBSS + containing 0.55 mg ⋅ mL^− 1 (1x) FMP probe (Blue component A from Molecular Devices, San Jose, CA, USA) for 30 min at 37 °C and 220 rpm. […] First, the baseline was measured for 30 s by measuring each well every 3 s. The plate was then removed from the reader and 50 µL of substrate solutions containing 0.55 mg ⋅ mL^− 1 FMP probe was added. These solutions were prepared by mixing equal parts solution containing 2x FMP probe and solutions containing 4x the final concentration of substrate. […] Following this, the baseline of the next column was measured and followed the same procedure as just described.
For the FMP data, the baseline was defined as the mean fluorescence of the first data point before substrate addition. The baseline of each well was then subtracted from the data point to get the ΔF. Plotting ΔF as a function of time and calculating the area under the curve (AUC) after substrate addition was used as a measure of SNAT2 activity.

SNAT2 [3] = biological target: T1, SNAT2; assay: Inhibition of SNAT2-mediated 3H-glycine uptake in hyperosmotically treated PC-3 cells; format: cell-based; conditions: for inhibition of SNAT2-mediated 3H-glycine uptake / affinity for SNAT2: pH 7.4, result in words
Experimental: Where Y is the % uptake, X is the concentration of the inhibitor, Top and Bottom are the top and bottom plateau respectively, and IC50 is the half maximal inhibitory concentration. These studies were performed in at least 3 independent cell passages (n = 3) and a curve was defined for each independent passage. However, for each compound, the top and bottom were constrained to be the same amongst the different cell passages.

SNAT2 [4] = biological target: T1, SNAT2; assay: FLIPR membrane potential (FMP) assay in PC-3 cells; format: cell-based; conditions: isoosmotically treated PC-3 cells
SNAT2 [5] = biological target: T1, SNAT2; set-up: method as in Jakobsen et al. [2023]; Nielsen et al. [2022]; conditions: hyperosmotically treated PC-3 cells; ref Jakobsen et al. [2023]; Nielsen et al. [2022]; cited from earlier work
[6] = 10 mM compound, hyperosmotically treated PC-3 cells
[7] = hyperosmotically treated PC-3 cells, 5 min uptake of 11.1 nM 3H-glycine, pH 7.4, read-out: IC50
[8] = hyperosmotically treated PC-3 cells
[9] = 20 mM compound, hyperosmotically treated PC-3 cells
[10] = 3 mM compound, hyperosmotically treated PC-3 cells

In the case of `N[C@@H](CO)C(=O)O` [L-Serine, L-serine], the “fold change of intracellular accumulation in absence vs presence of 10 mM L-glutamine” value (SNAT2 [1]; 0.45 mM compound) is reported as 4.1 fold, the “AUC of fluorescence response-time curve” value (SNAT2 [2]; [6]) is reported as 24 ± 0.9 10^5 RFU ∙ s and the “AUC, % of 10 mM L-alanine” value (SNAT2 [2]; [6]) is reported as 108.6 ± 4.2%. The IC50 (SNAT2 [3]; [7]) was 460 µM.

With `C[C@H](N)CO` [L-alaninol] the “inhibition of SNAT2-mediated 3H-glycine uptake / affinity for SNAT2” value (SNAT2 [3]; [8]) was “potency is lost”.

`O=C(O)[C@@H]1C[C@@H](O)CN1` [trans-4-Hydroxy-L-proline, trans-4-hydroxy-L-proline] showed an IC50 (SNAT2 [3]) of 3500 µM.

With `CCCC[C@H](N)C(=O)O` [L-Norleucine, L-norleucine] the “AUC of fluorescence response-time curve” value (SNAT2 [2]; [6]) was 24.4 ± 1.3 10^5 RFU ∙ s, the “AUC, % of 10 mM L-alanine” value (SNAT2 [2]; [6]) was 110.4 ± 6.1% and the “response in the FMP assay (stimulation of SNAT2 activity)” value (“response in the FMP assay” for short) (SNAT2 [2]; [8]) was “substrates of SNAT2”.

In the case of `NCCS(=O)(=O)O` [Taurine, taurine], the “AUC of fluorescence response-time curve” value (SNAT2 [2]; [9]) is reported as -1.0 ± 0.2 10^5 RFU ∙ s, the “AUC, % of 10 mM L-alanine” value (SNAT2 [2]; [9]) is reported as -4.7 ± 0.7% and the “influence on fluorescence intensity in the FMP assay” value (SNAT2 [2]) is reported as “did not lead to an increase in fluorescence; also recorded: little influence on the fluorescence intensity”.

For `N[C@@H](CC1CCCCC1)C(=O)O` [3-Cyclohexyl-L-alanine, 3-cyclohexyl-L-alanine], the “AUC of fluorescence response-time curve” value (SNAT2 [2]; [10]) was 21.9 ± 0.5 10^5 RFU ∙ s, the “AUC, % of 10 mM L-alanine” value (SNAT2 [2]; [10]) was 99.2 ± 2.4% and the “response in the FMP assay” value (SNAT2 [2]; [8]) was “substrates of SNAT2”. For the same compound, the IC50 (SNAT2 [3]; [7]) was 630 µM.

For `COC(=O)[C@H](C)N` [L-Alanine methyl ester, L-alanine methyl ester hydrochloride], the “AUC of fluorescence response-time curve” value (SNAT2 [2]; [6]) was 23.5 ± 0.8 10^5 RFU ∙ s, the “AUC, % of 10 mM L-alanine” value (SNAT2 [2]; [6]) was 106.6 ± 3.8% and the “response in the FMP assay” value (SNAT2 [2]; [8]) was “substrates of SNAT2”. For the same compound, the IC50 (SNAT2 [3]; [7]) was 330 µM.

With `CCOC(=O)[C@H](C)N` [L-Alanine ethyl ester, L-alanine ethyl ester hydrochloride] the “AUC of fluorescence response-time curve” value (SNAT2 [2]; [6]) was 21.1 ± 0.6 10^5 RFU ∙ s, the “AUC, % of 10 mM L-alanine” value (SNAT2 [2]; [6]) was 95.4 ± 2.5% and the “response in the FMP assay” value (SNAT2 [2]; [8]) was “substrates of SNAT2”. It also gave an IC50 (SNAT2 [3]; [7]) of 420 µM.

With `C[C@H](N)C(=O)O` [L-Alanine, L-alanine] the “AUC of fluorescence response-time curve” value (SNAT2 [2]; [6]) was 22.1 ± 0.9 10^5 RFU ∙ s, the “AUC, % of 10 mM L-alanine” value (SNAT2 [2]; [6]) was 100 ± 3.9% and the EC50 (SNAT2 [2]; [8]) was 245 µM. The EC50 (SNAT2 [4]) was 138 µM, the IC50 (SNAT2 [3]; [7]) was 170 µM and the “inhibition of 3H-glycine uptake at different pH levels” value (SNAT2 [3]; pH 6.8, 7.4 and 8.0, 0.4 mM L-alanine benzyl ester or 0.2 mM L-alanine, two-way ANOVA) was “no significant differences in inhibition at the different pH levels”.

For `N=C(N)NCCC[C@H](N)C(=O)O` [L-Arginine, L-arginine hydrochloride], the “AUC of fluorescence response-time curve” value (SNAT2 [2]; [9]) was -0.97 ± 0.3 10^5 RFU ∙ s, the “AUC, % of 10 mM L-alanine” value (SNAT2 [2]; [9]) was -4.4 ± 1.2% and the “influence on fluorescence intensity in the FMP assay” value (SNAT2 [2]) was “little influence on the fluorescence intensity”.

In the case of `Cl.NCC(N)=O` [glycinamide, glycinamide hydrochloride], the “inhibition of SNAT2-mediated 3H-glycine uptake / affinity for SNAT2” value (SNAT2 [3]; [8]) is reported as “potency is lost”.

Compound `CN(C)CC(=O)O` [N,N-Dimethylglycine, N,N-dimethylglycine hydrochloride] has an IC50 (SNAT2 [3]; [7]) of 23000 µM and an IC50 (SNAT2 [3]; hyperosmotically treated PC-3 cells, -log transformed IC50, read-out: pIC50 ± SEM (converted)) of 25100 µM.

In the case of `O=C(O)[C@@H]1CCCCN1` [L-Pipecolinic acid, L-pipecolinic acid], the “AUC of fluorescence response-time curve” value (SNAT2 [2]; [6]) is reported as 18.1 ± 0.2 10^5 RFU ∙ s, the “AUC, % of 10 mM L-alanine” value (SNAT2 [2]; [6]) is reported as 81.9 ± 0.8% and the “response in the FMP assay” value (SNAT2 [2]; [8]) is reported as “substrates of SNAT2”. It also gave an IC50 (SNAT2 [3]; [7]) of 2900 µM.

For `O=C(O)[C@@H]1CCN1` [L-Azetidine-2-carboxylic acid, L-azetidine-2-carboxylic acid], the IC50 (SNAT2 [3]) was 660 µM.

With `NCCCC[C@H](N)C(=O)O` [L-lysine, L-lysine monohydrochloride] the “inhibition of SNAT2-mediated 3H-glycine uptake / affinity for SNAT2” value (SNAT2 [3]; [8]) was “limited affinity”.

In the case of `CC(=O)C(C)N.Cl` (centres unmarked) [3-aminobutan-2-one, 3-Aminobutan-2-one hydrochloride], the “inhibition of SNAT2-mediated 3H-glycine uptake / affinity for SNAT2” value (SNAT2 [3]; [8]) is reported as “retains some affinity for SNAT2”.

In the case of `N[C@@H](Cc1ccccc1)C(=O)O` [L-phenylalanine], the “inhibition of SNAT2-mediated 3H-glycine uptake / affinity for SNAT2” value (SNAT2 [3]; [8]) is reported as “relatively poor at inhibiting SNAT2”.

With `NCC(=O)O` [Glycine, glycine] the IC50 (SNAT2 [3]; [7]) was 520 µM and the “pIC50 ± SEM” value (SNAT2 [3]; hyperosmotically treated PC-3 cells, -log transformed IC50) was “[3.3 ± 0.11]”.

For `N[C@@H](CCO)C(=O)O` [L-Homoserine, L-homoserine], the “AUC of fluorescence response-time curve” value (SNAT2 [2]; [6]) was 25.9 ± 1.4 10^5 RFU ∙ s, the “AUC, % of 10 mM L-alanine” value (SNAT2 [2]; [6]) was 117.5 ± 6.2% and the “response in the FMP assay” value (SNAT2 [2]; [8]) was “substrates of SNAT2”. The IC50 (SNAT2 [3]; [7]) was 250 µM.

In the case of `C[N+](C)(C)CC(=O)O` [Betaine, betaine], the “reduction of 3H-glycine uptake” value (SNAT2 [5]) is listed as ~86% and the IC50 (SNAT2 [3]; [7]) is listed as 6600 µM.

Compound `O=C(O)[C@@H]1CCCN1` [L-Proline, L-proline] has an IC50 (SNAT2 [3]; [7]) of 640 µM.

`CNCC(=O)O` [Sarcosine, sarcosine] showed an IC50 (SNAT2 [3]; [7]) of 710 µM.

`C[C@H](N)C(=O)OC(C)(C)C` [L-Alanine tert-butyl ester, L-alanine tert-butyl ester hydrochloride] showed an IC50 (SNAT2 [3]; [7]) of 4100 µM.

In the case of `O=C(O)c1ccccn1` [picolinic acid], the “Hill slope of concentration-response curve” value (SNAT2 [3]; [8]) is reported as -4.2 and the IC50 (SNAT2 [3]; [7]) is reported as 5600 µM.

In the case of `N[C@@H](CCC(=O)OCc1ccccc1)C(=O)O` [γ-Benzyl L-glutamate, γ-benzyl L-glutamate], the “fold change of intracellular accumulation in absence vs presence of 10 mM L-glutamine” value (SNAT2 [1]; 0.7 mM compound) is reported as 5.4 fold, the “level of intracellular accumulation” value (SNAT2 [1]; result in words) is reported as “relatively low accumulation” and the “AUC of fluorescence response-time curve” value (SNAT2 [2]; [10]) is reported as 1.7 ± 0.4 10^5 RFU ∙ s. For the same compound, the “AUC, % of 10 mM L-alanine” value (SNAT2 [2]; [10]) was 7.8 ± 1.9%, the “response in the FMP assay” value (SNAT2 [2]; [8]) was “little or no stimulation of SNAT2 activity” and the IC50 (SNAT2 [3]; [7]) was 680 µM.

In the case of `N[C@@H](CCC(=O)O)C(=O)O` [L-glutamate, L-glutamic acid], the “inhibition of SNAT2-mediated 3H-glycine uptake / affinity for SNAT2” value (SNAT2 [3]; [8]) is reported as “limited affinity”.

For `N[C@H](C(=O)O)c1ccc(O)cc1` [oxfenicine, Oxfenicine], the “inhibition of SNAT2-mediated 3H-glycine uptake / affinity for SNAT2” value (SNAT2 [3]; [8]) was “relatively poor at inhibiting SNAT2”.
